Marks after values point to notes of the source that are not given here.
Columns and labels:
3T3 = test: TG432: In vitro 3T3 NRU Phototoxicity Test; type: cell-based; conditions: OECD test guideline TG432
From the text: Based on this, external dermal agent containing any of adenosine N1-oxide 5′-phosphate, analogues thereof, and their salts can be said to be safe.

[1] = Photostability under fluorescent lamp, HPLC residual percentage (Experiment 10); type: physicochemical; conditions: fluorescent lamp about 4,000 lux, 28° C.
Procedure: To 25 mg of each of the test substances in Table 13 was added each of Mcllvain buffers adjusted to different pHs to give a total volume of 50 mL and distributed to transparent glass screw bottles (5 mL) with plastic screw caps equal to the number of the test substances by 2.0 mL. Under a fluorescent lamp with about 4,000 lux at 28° C., the glass screw bottles were allowed to lay along. Sodium adenosine N1-oxide 5′-phosphate and 5′-glucosyl adenosine N1-oxide were respectively analyzed on HPLC at the initiation of the test and at eight weeks after initiating the experiment, and at the initiation of the test and at two weeks intervals up to eight weeks after the initiation, followed by taking out one of the bottles for HPLC analysis. The analysis was repeated three times and the average residual percentage of each test substance was calculated based on the area ratio against the peak area for each test substance upon HPLC chromatogram at the initiation of the experiment. […] Equation: Residual percentage (%) of test substance=[(Average peak area after a prescribed time lapse at respective pHs for each test substance)/(Average peak area at the initiation of experiment at respective pHs for each test substance)]×100

[2] = tested on: human epidermoid carcinoma cell line A-431; test: Tight-junction function, lucifer yellow transmittance (Experiments 2 and 8); type: cell-based; conditions: for Relative transmittance of lucifer yellow (%): control = 100%
From the text: A human epidermoid carcinoma cell line A-431 was suspended in a media, supplemented with any of the test substances disclosed in Table 4 and having respective concentrations as indicated in the table, to give a cell concentration of 1×10^5 cells/mL, and each cell suspension was placed in an insert cup for a 12-well culture plate by two milliliters per well, followed by culturing the cells until reaching a confluent state through over the bottom surface of each well. The inner and the outer cup volumes were adjusted to give two milliliters while checking both the liquid levels of the cups were constant, and lucifer yellow as a model for permeating substance, commercialized by Life Technologies Corporation, CA, USA, was added to each inner cup to give a final concentration of 100 μM. Thereafter, the fluorescent intensities of lucifer yellow in the culture media in both the inner and the outer cups were measured, followed by calculating the percentage of the fluorescent intensity of the outer cup against that of the sum of the outer and the inner cups for use as a transmittance of lucifer yellow with the following equation. Equation: Transmittance of lucifer yellow (%)={(Absorbance of a liquid outside of an insert cup)/[(Absorbance of a liquid inside of the insert cup)+(Absorbance of the liquid outside of the insert cup)]}×100
There was provided a control system prepared similarly as above except for not adding any of the test substances, and the transmittance of lucifer yellow was regarded as 100% for evaluating the reduction of transmittance due to the reinforcement of the function of tight junction, based on the following equation. Equation: Relative transmittance (Relative percentage (%)) of lucifer yellow=[(Transmittance of a sample with any one of test substances)/(Transmittance of control)]×100
The experiment was repeated three times, and the data was subjected to the Dunnett's multiple comparisons with control. The symbol “*” means a level of significance of p<0.01.
Except for adding the test substances listed in Table 11 at respective concentrations shown in the table, experiments were respectively conducted in accordance with the methods in Experiment 2 disclosed in the specification to examine the effect of the combination use with ethylenediaminetetraacetate used as a preservative for cosmetics on the action of reinforcing the function of tight junction by sodium adenosine N1-oxide 5′-phosphate. A control system was provided and similarly treated as above except for not adding any test substance. The reduction rate of relative transmittance of lucifer yellow against that of control based on the following equation. Equation: Reduction rate of relative transmittance of lucifer yellow (%)=100−[(Transmittance of a sample with any one of test substances)/(Transmittance of control)]×100

matrix metalloprotease-1 = test: Matrix metalloprotease-1 production of NHDF after IL-1β, ELISA (Experiments 5 and 9); type: cell-based, human; conditions: for Reduction rate of the production level of matrix metalloprotease-1 activity (%): single use, reduction against control; for Production level of matrix metalloprotease-1 (%): human IL-1β 1 ng/ml, control = 100%
Procedure: Normal human dermal fibroblasts (NHDF), which had been suspended in a Dulbecco's Modified Eagle Medium supplemented with 10% fetal calf serum to give a concentration of 2.5×10^5 cells/mL, were placed in 96-well microplates by 0.1 mL/well and cultured until reaching a confluent state over the bottom of each well. Thereafter, the medium in each well was replaced with a fresh serum-free culture medium and culture for another 24 hours, added with any one of the test substances in Table 6 at each concentration shown in the table, and cultured for additional 24 hours. Then, the resulting cell cultures were added with human IL-1β to give a final concentration of 1 ng/ml, followed by culturing the cells for another 24 hours. After completion of the culture, matrix metalloprotease-1 in the supernatant in each well was detected with an enzyme-linked immuno sorbent assay (ELISA), commercialized by R & D Systems, Inc., MN, USA, developed coloration with tetramethylbenzidine, and measured for absorption at a wavelength of 450 nm. A control system was provided similarly as above except for not adding any test substance, and determined for the activity of matrix metalloprotease-1 similarly as in the above to be regarded as 100%. The production level of matrix metalloprotease-1 for each test substance was comparatively evaluated based on the following equation. Equation: Production level of matrix metalloprotease-1 (relative value (%))=[(Absorbance of a sample with any one of test substances)/(Absorbance of control)]×100
The experiment was repeated three times, and the data were compared to that of control with the Dunnett's multiple comparisons test. The symbol “*” means a level of significance of p<0.01.
Except for adding the test substances listed in Table 12 at respective concentrations shown in the table, experiments were respectively conducted in accordance with the methods in Experiment 5 disclosed in the specification to examine the effect of the combination use with ascorbic acid 2-glucoside used as a skin whitener in cosmetics on the action of anti-wrinkles by analogues of adenosine N1-oxide 5′-phosphate. A control system was provided and similarly treated as above except for not adding any test substance. The reduction rate of the production level of matrix metalloprotease-1 against that of control based on the following equation. Equation: Reduction rate of the production level of matrix metalloprotease−1(%)=100−[(Absorbance of a sample with any one of test substances)/(Absorbance of control)]×100

For `Nc1c2ncn([C@@H]3O[C@H](COP(=O)([O-])O)[C@@H](O)[C@H]3O)c2nc[n+]1[O-].[Na+]` [Sodium adenosine N1-oxide 5′-phosphate, sodium adenosine N1-oxide 5′-phosphate], the optical toxicity (3T3) was “no optical toxicity”, the “Residual percentage (%)” value ([1]; pH 4 to 5, at the initiation of experiment) was 100.0% and the “Residual percentage (%)” value ([1]; pH 4 to 5, eight weeks) was 93.0%. The “Residual percentage (%)” value ([1]; pH 6 to 7, at the initiation of experiment) was 100.0%, the “Residual percentage (%)” value ([1]; pH 6 to 7, eight weeks) was 88.8% and the “Residual percentage (%)” value ([1]; pH 8 to 9, at the initiation of experiment) was 100.0%. For the same compound, the “Residual percentage (%)” value ([1]; pH 8 to 9, eight weeks) was 96.9%, the “Reduction rate of relative transmittance of lucifer yellow (%)” value ([2]; 10 μM, single use, reduction against control) was 21.6% and the “Relative transmittance of lucifer yellow (%)” value ([2]; 10 μM) was 78.4%. For the same compound, the “reduction of lucifer yellow transmittance” value ([2]; 20 μM, compared to control) was “about 60%”, the “Relative transmittance of lucifer yellow (%)” value ([2]; 20 μM) was 62.3* % and the “Reduction rate of the production level of matrix metalloprotease-1 activity (%)” value (from here on “Reduction rate of the production level … (%)”) (matrix metalloprotease-1; 2 μM) was 2.9%. The “Production level of matrix metalloprotease-1 (%)” value (matrix metalloprotease-1; 5 μM) was 96.0%, the “Reduction rate of the production level … (%)” value (matrix metalloprotease-1; 5 μM) was 4.0% and the “Production level of matrix metalloprotease-1 (%)” value (matrix metalloprotease-1; 10 μM) was 83.1* %. The “Production level of matrix metalloprotease-1 (%)” value (matrix metalloprotease-1; 10 μM, listed as sodium adenosine N1-oxide 5′-phosphate) was “about 80%”, the “Reduction rate of the production level … (%)” value (matrix metalloprotease-1; 10 μM) was 16.9% and the “Production level of matrix metalloprotease-1 (%)” value (matrix metalloprotease-1; 20 μM) was 31.8* %. The “Production level of matrix metalloprotease-1 (%)” value (matrix metalloprotease-1; 20 μM, listed as sodium adenosine N1-oxide 5′-phosphate) was “about 30%”.

From patent US10071042B2, “External dermatological agent for anti-ageing” (Hayashibara Co., Ltd., priority 2014, dated 2018)
